Assay results from paper PMC9575645 (Signal Transduction and Targeted Therapy, 2022).

Legend:
HSL phosphorylation [1] = test: HSL phosphorylation by western blot in IAV-infected A549 cells; assay type: cell-based, human; settings: 5 μM or 50 μM
HSL phosphorylation [2] = test: HSL phosphorylation by western blot in SARS-CoV-2-infected Vero E6 cells; assay type: cell-based, African green monkey; settings: 5 μM or 50 μM
[3] = tested on: Influenza A virus (H1N1) (PR8); settings: IAV; FFA-deprived condition in lipase inhibitor-treated cells; 100 µM
SARS-CoV-2 (KCDC03) = test: In vitro antiviral activity against SARS-CoV-2 in Vero E6 cells (CCIF viral yield, RT-qPCR); assay type: cell-based; settings: SARS-CoV-2; FFA-deprived condition in lipase inhibitor-treated cells; 100 µM
[4] = In vivo toxicity in hamsters (body weight, gross and histopathological organ changes); settings: 80 mg kg^-1 d^-1 atglistatin and 2.5 mg kg^-1 d^-1 remdesivir, singly or in combination
Method: Three groups of 3 hamsters were treated intraperitoneally with 20, 40, and 80 mg kg^-1 d^-1 of atglistatin prepared in a 100 μL vehicle [50% PEG400 in water (vol/vol)] Bid with a 12 h interval for four and a half consecutive days, respectively (Table S10). One group of 3 control anesthetized hamsters was administered intraperitoneally with 100 μL vehicle Bid with a 12 h interval for four and a half consecutive days (Table S10).
Histopathological changes in lungs, liver, kidney, heart, and spleen from the experimental mice or hamsters in each experimental group were determined as described elsewhere.^35 Briefly, each sample from the mice or hamsters in each experimental group was fixed in sufficient 10% neutral formalin at 20°C for 3-4 days, washed in tap water, then trimmed, and thereafter processed in the automatic embedding machine for the dehydration and paraffin embedment. Tissue sections, prepared on slides at a thickness of 3 μm by a microtome, were used for hematoxylin and eosin (H&E) staining or IHC as described below. H&E stained sections were observed under light microscopy. The morphological changes to lung, liver, kidney, heart, and spleen tissues were reviewed in a blinded manner as previous described.^35

O=S(=O)(NCCNC/C=C/c1ccc(Br)cc1)c1cccc2cnccc12 [H89]
viral-mediated HSL phosphorylation (HSL phosphorylation [1]): prevented viral-mediated HSL phosphorylation
viral-mediated HSL phosphorylation (HSL phosphorylation [2]): prevented viral-mediated HSL phosphorylation

CCCCC/C=C\C/C=C\CCCCCCCC(=O)O [LA, linoleic acid]
virus replication on FFA supplementation [3]: rescue of replication
virus replication on FFA supplementation (SARS-CoV-2 (KCDC03)): rescue of replication

CCCCCCCC/C=C\CCCCCCCC(=O)O [OA, oleic acid]
virus replication on FFA supplementation [3]: rescue of replication
virus replication on FFA supplementation (SARS-CoV-2 (KCDC03)): rescue of replication

CCCCCCCCCCCCCCCC(=O)O [PA, palmitic acid]
virus replication on FFA supplementation [3]: rescue of replication
virus replication on FFA supplementation (SARS-CoV-2 (KCDC03)): rescue of replication

CCC(CC)COC(=O)[C@H](C)N[P@](=O)(OC[C@H]1O[C@@](C#N)(c2ccc3c(N)ncnn23)[C@H](O)[C@@H]1O)Oc1ccccc1 [remdesivir]
toxicity, including body weight loss [4]: no toxicity
